Data published in patent publication US20060183759A1, “Tissue transglutaminase inhibitors” (priority 2004, published 2006).
Read-outs that look alike come from different tables or passages of the source.

Tests used:
[1] = target: T1, transglutaminase 2 (TGase 2) (Homo sapiens, UniProt P21980); experiment: TGase 2 transpeptidase fluorescence assay: incorporation of KXD into N,N-dimethylated-casein (Std and FPC formats); assay type: biochemical; settings: standard format (Std): reactions terminated after 60 min, FI recorded, four-parameter fit
T1 sequence (P21980 1-687): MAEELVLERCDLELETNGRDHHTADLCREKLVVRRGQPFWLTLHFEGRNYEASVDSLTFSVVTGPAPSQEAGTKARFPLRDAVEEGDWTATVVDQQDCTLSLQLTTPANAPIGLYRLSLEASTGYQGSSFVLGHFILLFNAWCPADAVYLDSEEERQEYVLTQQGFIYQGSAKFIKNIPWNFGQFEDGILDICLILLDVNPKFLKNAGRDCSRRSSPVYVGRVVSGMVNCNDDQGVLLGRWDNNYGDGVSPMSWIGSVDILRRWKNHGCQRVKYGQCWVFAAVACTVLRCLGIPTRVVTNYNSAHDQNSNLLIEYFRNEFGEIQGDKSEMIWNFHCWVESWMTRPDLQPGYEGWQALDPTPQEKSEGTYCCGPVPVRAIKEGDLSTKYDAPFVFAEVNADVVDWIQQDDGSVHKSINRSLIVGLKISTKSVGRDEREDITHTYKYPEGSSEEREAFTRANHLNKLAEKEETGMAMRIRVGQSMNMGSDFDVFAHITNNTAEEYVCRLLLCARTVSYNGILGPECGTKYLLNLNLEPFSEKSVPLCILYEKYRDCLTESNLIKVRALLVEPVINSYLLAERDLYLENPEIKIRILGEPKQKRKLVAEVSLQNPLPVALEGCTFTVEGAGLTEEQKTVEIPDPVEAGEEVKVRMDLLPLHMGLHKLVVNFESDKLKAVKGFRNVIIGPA

[2] = target: T1, transglutaminase 2 (TGase 2); experiment: as above; assay type: biochemical; settings: for TGase 2 inhibitory activity, SAR comment in words (relative to parent compound): qualitative comparison
Protocol: Transpeptidase activity was monitored as the increase in fluorescence intensity (FI) that accompanies incorporation of the dansylated Lys derivative, α-N-Boc-Lys-CH2-CH2-dansyl (KXD), into the protein substrate, N,N-dimethylated-casein (NMC).
Therefore, a method was used in which full progress curves (FPC) were recorded for the TGase-catalyzed reaction of KXD with NMC in the presence of inhibitor (Table 1-4). Reactions were initiated by enzyme addition to a solution of substrate and inhibitor. […] From such progress curves, IC50 values were calculated using the following equation: IC50=[I]/{(vc/vss)−1}. Progress curves recorded at several inhibitor concentrations were used to determine FPC IC50 values (Table 1-4).

[3] = full progress curves (FPC), IC50=[I]/{(vc/vss)−1}, from steady-state velocity, read-out: IC50 (μM, FPC)
[4] = summary of FPC values, read-out: FPC IC50 values

SMILES | IC50 [1] | IC50 [2, 3] | other results
CCCN1CCc2c(sc3nc(SCC(=O)NN)n(-c4cccc(F)c4)c(=O)c23)C1 [986-49, [3-(3-Fluorophenyl)-4-oxo-7-propyl-3,4,5,6,7,8-hexahydro-9-thia-1,3,7-triazafluoren-2-ylsulfanyl]acetic acid hydrazide] | 6 µM |  | 
CN(N)C(=O)CSc1nc2scc(-c3ccc(F)cc3)c2c(=O)n1-c1ccc(F)cc1 [986-50, [3,5-Bis-(4-fluorophenyl)-4-oxo-3,4-dihydrothieno[2,3-d]pyrimidin-2-ylsulfanyl]acetic acid N-methylhydrazide] | > 20 µM |  | 
NNC(=O)CSc1nc2scc(-c3ccccc3)c2c(=O)n1C1CCCCC1 [986-17, (3-Cyclohexyl-4-oxo-5-phenyl-3,4-dihydrothieno[2,3-d]pyrimidin-2-ylsulfanyl)acetic acid hydrazide] | 2.6 µM |  | 
Cn1c(SCC(=O)NN)nc2scc(-c3ccccc3)c2c1=O [986-10, (3-Methyl-4-oxo-5-phenyl-3,4-dihydrothieno[2,3-d]pyrimidin-2-ylsulfanyl)acetic acid hydrazide] | 8.4 µM |  | 
CC(C)(C)OC(=O)N1CCc2c(sc3nc(SCC(=O)NN)n(-c4cccc(F)c4)c(=O)c23)C1 [986-46, 3-(3-Fluorophenyl)-2-hydrazinocarbonylmethylsulfanyl-4-oxo-3,5,6,8-tetrahydro-4H-9-thia-1,3,7-triazafluorene-7-carboxylic acid tert-butyl ester] |  | 1.1 µM | 
NNC(=O)CSc1nc2sc3c(c2c(=O)n1-c1cccc(F)c1)CCNC3 [986-47, [3-(3-Fluorophenyl)-4-oxo-3,4,5,6,7,8-hexahydro-9-thia-1,3,7-triazafluoren-2-ylsulfanyl]acetic acid hydrazide] |  | 7.1 µM | 
NNC(=O)CSc1nc2sc3c(c2c(=O)n1-c1cccc(F)c1)CCCC3 [986-42, [3-(3-Fluorophenyl)-4-oxo-3,4,5,6,7,8-hexahydrobenzo[4,5]thieno[2,3-d]pyrimidin-2-ylsulfanyl]acetic acid hydrazide] |  | 0.45 µM | 
O=C(O)CSc1nc2scc(-c3ccc(F)cc3)c2c(=O)n1-c1ccc(F)cc1 [986-54, [3,5-Bis-(4-fluorophenyl)-4-oxo-3,4-dihydrothieno[2,3-d]pyrimidin-2-ylsulfanyl]acetic acid] | > 20 µM |  | 
CC1CCCc2sc3nc(SCC(=O)NN)n(-c4cccc(F)c4)c(=O)c3c21 (stereo not shown) [986-43, [3-(3-Fluorophenyl)-5-methyl-4-oxo-3,4,5,6,7,8-hexahydrobenzo[4,5]thieno[2,3-d]pyrimidin-2-ylsulfanyl]acetic acid hydrazide] |  | 0.2 µM | 
NNC(=O)CNc1nc2scc(-c3ccccc3)c2c(=O)n1-c1ccccc1 [986-05, (4-Oxo-3,5-diphenyl-3,4-dihydrothieno[2,3-d]pyrimidin-2-ylamino)acetic acid hydrazide] |  | 3.7 µM | TGase 2 inhibitory activity, SAR comment in words (relative to parent compound) [2]: decreased activity
NNC(=O)CSc1nc2scc(-c3ccccc3)c2c(=O)n1Cc1ccccc1 [986-14, (3-Benzyl-4-oxo-5-phenyl-3,4-dihydrothieno[2,3-d]pyrimidin-2-ylsulfanyl)acetic acid hydrazide] | 2.3 µM |  | 
CN1CCc2c(sc3nc(SCC(=O)NN)n(-c4cccc(F)c4)c(=O)c23)C1 [986-48, [3-(3-Fluorophenyl)-7-methyl-4-oxo-3,4,5,6,7,8-hexahydro-9-thia-1,3,7-triazafluoren-2-ylsulfanyl]acetic acid hydrazide] |  | 0.53 µM | 

The next lines start with results.

IC50 [1] | IC50 [2, 3] | SMILES | other results
2.1 µM |  | COc1ccc(-n2c(SCC(=O)NN)nc3scc(-c4ccccc4)c3c2=O)cc1 [986-15, [3-(4-Methoxyphenyl)-4-oxo-5-phenyl-3,4-dihydrothieno[2,3-d]pyrimidin-2-ylsulfanyl]acetic acid hydrazide] | 
 | 0.29 µM | NNC(=O)CSc1nc2scc(-c3cccc(F)c3)c2c(=O)n1-c1cccc(F)c1 [986-38, [3,5-Bis-(3-fluorophenyl)-4-oxo-3,4-dihydrothieno[2,3-d]pyrimidin-2-ylsulfanyl]acetic acid hydrazide] | 
 | 0.9 µM | CC(C)c1sc2nc(SCC(=O)NN)n(-c3cccc(F)c3)c(=O)c2c1-c1ccccc1F [986-41, [3-(3-Fluorophenyl)-5-(2-fluorophenyl)-6-isopropyl-4-oxo-3,4-dihydrothieno[2,3-d]pyrimidin-2-ylsulfanyl]acetic acid hydrazide] | TGase 2 inhibitory activity, SAR comment in words (relative to parent compound) [2]: detrimental
2 µM |  | COc1ccccc1-n1c(SCC(=O)NN)nc2scc(-c3ccccc3)c2c1=O [986-20, [3-(2-Methoxyphenyl)-4-oxo-5-phenyl-3,4-dihydrothieno[2,3-d]pyrimidin-2-ylsulfanyl]acetic acid hydrazide] | 
 | 0.28 µM | COc1ccc(-c2csc3nc(SCC(=O)NN)n(-c4cccc(F)c4)c(=O)c23)cc1 [986-33, [3-(3-Fluorophenyl)-5-(4-methoxyphenyl)-4-oxo-3,4-dihydrothieno[2,3-d]pyrimidin-2-ylsulfanyl]acetic acid hydrazide] | 
 | 0.14 µM | NNC(=O)CSc1nc2scc(-c3ccccc3F)c2c(=O)n1-c1cccc(F)c1 [986-37, [3-(3-Fluorophenyl)-5-(2-fluorophenyl)-4-oxo-3,4-dihydrothieno[2,3-d]pyrimidin-2-ylsulfanyl]acetic acid hydrazide] | IC50 [2, 4]: < 0.16 µM
> 20 µM |  | CNNC(=O)CSc1nc2scc(-c3ccc(F)cc3)c2c(=O)n1-c1ccc(F)cc1 [986-51, [3,5-Bis-(4-fluorophenyl)-4-oxo-3,4-dihydrothieno[2,3-d]pyrimidin-2-ylsulfanyl]acetic acid N′-methylhydrazide] | 
1.8 µM |  | NNC(=O)CSc1nc2scc(-c3ccccc3)c2c(=O)n1-c1ccc(Cl)cc1 [986-25, [3-(4-Chlorophenyl)-4-oxo-5-phenyl-3,4-dihydrothieno[2,3-d]pyrimidin-2-ylsulfanyl]acetic acid hydrazide] | 
6.3 µM |  | Cc1csc2nc(SCC(=O)NN)n(-c3ccc(F)cc3)c(=O)c12 [986-11, [3-(4-Fluorophenyl)-5-methyl-4-oxo-3,4-dihydrothieno[2,3-d]pyrimidin-2-ylsulfanyl]acetic acid hydrazide] | 
 | 0.14 µM | COc1ccccc1-c1csc2nc(SCC(=O)NN)n(-c3cccc(F)c3)c(=O)c12 [986-31, [3-(3-Fluorophenyl)-5-(2-methoxyphenyl)-4-oxo-3,4-dihydrothieno[2,3-d]pyrimidin-2-ylsulfanyl]acetic acid hydrazide] | IC50 [2, 4]: < 0.16 µM
1.8 µM |  | NNC(=O)CSc1nc2scc(-c3ccccc3)c2c(=O)n1-c1ccccc1Cl [986-23, [3-(2-Chlorophenyl)-4-oxo-5-phenyl-3,4-dihydrothieno[2,3-d]pyrimidin-2-ylsulfanyl]acetic acid hydrazide] | 
> 20 µM |  | CCOC(=O)CSc1nc2scc(-c3ccccc3)c2c(=O)n1-c1ccc(F)cc1 [986-58, [3-(4-Fluorophenyl)-4-oxo-5-phenyl-3,4-dihydrothieno[2,3-d]pyrimidin-2-ylsulfanyl]acetic acid ethyl ester] | 
 | 0.23 µM | CC(C)c1csc2nc(SCC(=O)NN)n(-c3cccc(F)c3)c(=O)c12 [986-36, [3-(3-Fluorophenyl)-5-isopropyl-4-oxo-3,4-dihydrothieno[2,3-d]pyrimidin-2-ylsulfanyl]acetic acid hydrazide] | TGase 2 inhibitory activity, SAR comment in words (relative to parent compound) [2]: no loss in activity
 | 0.15 µM | Cc1sc2nc(SCC(=O)NN)n(-c3cccc(F)c3)c(=O)c2c1-c1ccccc1F [986-40, [3-(3-Fluorophenyl)-5-(2-fluorophenyl)-6-methyl-4-oxo-3,4-dihydrothieno[2,3-d]pyrimidin-2-ylsulfanyl]acetic acid hydrazide] | IC50 [2, 4]: < 0.16 µM
 | 1.5 µM | NNC(=O)CSc1nc2ccc(-c3ccccc3)cc2c(=O)n1-c1cccc(F)c1 [986-04, [3-(3-Fluorophenyl)-4-oxo-6-phenyl-3,4-dihydroquinazolin-2-ylsulfanyl]acetic acid hydrazide] | TGase 2 inhibitory activity, SAR comment in words (relative to parent compound) [2]: Activity was partly restored
 | 0.13 µM | NNC(=O)CSc1nc2sc(Cl)c(-c3ccccc3F)c2c(=O)n1-c1cccc(F)c1 [986-39, [6-Chloro-3-(3-fluorophenyl)-5-(2-fluorophenyl)-4-oxo-3,4-dihydrothieno[2,3-d]pyrimidin-2-ylsulfanyl]acetic acid hydrazide] | TGase 2 inhibitory activity, SAR comment in words (relative to parent compound) [2]: increased activity; IC50 [2, 4]: < 0.16 µM
